# ChEMBL document CHEMBL1136693, “Aryl tetrahydropyridine inhibitors of farnesyltransferase: glycine, phenylalanine and histidine derivatives” (Bioorg Med Chem Lett, 2003)
# Molecular target: Protein farnesyltransferase (Homo sapiens, UniProt P49354+P49356)
# Test: In vitro inhibitory activity against farnesyl transferase
# Assay type: protein-complex assay
row,IC50,Compound
1,240 nM,Cn1cncc1CN[C@H](Cc1ccc(C#N)cc1)C(=O)N1CCC(C#N)=C(c2cccc3ccccc23)C1
2,280 nM,Cn1cncc1CN(CC(=O)N1CCC(C#N)=C(c2cccc3ccccc23)C1)Cc1ccccc1
3,560 nM,Cn1cncc1CN(CC(=O)N1CCC(C#N)=C(c2cccc3ccccc23)C1)Cc1ccc(C#N)cc1

# Second part, the molecule before the results:
row,Compound,IC50
1,Cn1cncc1CN[C@@H](Cc1ccc(C#N)cc1)C(=O)N1CCC(C#N)=C(c2cccc3ccccc23)C1,310 nM
2,Cn1cncc1C[C@H](NCc1ccc(C#N)cc1)C(=O)N1CCC(C#N)=C(c2cccc3ccccc23)C1,130 nM
3,CSCC[C@H](NC(=O)C1=C(c2ccccc2C)CN(C(=O)N(Cc2ccccc2)Cc2cncs2)CC1)C(=O)O,0.56 nM
4,CSCC[C@H](NC(=O)C1=C(c2ccccc2C)CN(C(=O)OC(CCC2CCCCC2)c2cncs2)CC1)C(=O)O (some centres not stated),0.71 nM

# Molecular target: Protein farnesyltransferase (Mus musculus, UniProt Q61239+Q8K2I1)
# Test: Inhibition of Ras farnesylation in Human Ha-Ras-transformed BALB/c 3T3 cells
# Assay type: functional, cell-based
row,Compound,EC50
1,Cn1cncc1C[C@@H](NCc1ccc(C#N)cc1)C(=O)N1CCC(C#N)=C(c2cccc3ccccc23)C1,190 nM
2,CCCCN(CCC1CCCCC1)Cc1ccc(C(=O)N[C@@H](CCSC)C(=O)O)c(-c2ccccc2C)c1,16 nM
3,CN(Cc1ccc(C#N)cc1)[C@H](Cc1cncn1C)C(=O)N1CCC(C#N)=C(c2cccc3ccccc23)C1,> 100 nM

# Molecular target: Protein farnesyl/geranylgeranyl transferase (Homo sapiens) (UniProt P49354+P49356+P53609)
# Test: Selectivity for farnesyl over geranylgeranyl transferase
# Assay type: protein-complex assay
row,Compound,Selectivity
1,CCCCN(CCC1CCCCC1)Cc1ccc(C(=O)N[C@@H](CCSC)C(=O)O)c(-c2ccccc2C)c1,75000

# Molecular target: Geranylgeranyl transferase type I (Homo sapiens, UniProt P49354+P53609)
# Test: In vitro inhibitory activity against geranylgeranyltransferase-1 (type I)
# Assay type: protein-complex assay
row,Compound,IC50
1,Cn1cncc1C[C@@H](NCc1ccc(C#N)cc1)C(=O)N1CCC(C#N)=C(c2cccc3ccccc23)C1,3500 nM
